For assay [1], the target named is T1, C5a anaphylatoxin chemotactic receptor 1 (Homo sapiens) (UniProt P21730).
T1 sequence (whole entry): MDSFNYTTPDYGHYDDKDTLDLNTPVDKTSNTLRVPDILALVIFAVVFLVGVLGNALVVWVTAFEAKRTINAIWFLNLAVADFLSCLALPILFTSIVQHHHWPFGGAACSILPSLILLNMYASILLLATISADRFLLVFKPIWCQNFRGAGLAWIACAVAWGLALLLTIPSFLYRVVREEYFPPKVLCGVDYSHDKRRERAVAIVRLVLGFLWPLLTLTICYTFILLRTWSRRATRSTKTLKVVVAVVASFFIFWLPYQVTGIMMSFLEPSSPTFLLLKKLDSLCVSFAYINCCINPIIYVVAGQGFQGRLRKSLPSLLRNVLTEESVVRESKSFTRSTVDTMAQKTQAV
As to the kind of experiment: Displacement of […] from C5a receptor in human PBMC at 1 mM by scintillation counting.

Assay [2] deals with T2, C3a anaphylatoxin chemotactic receptor (Homo sapiens) (UniProt Q16581).
T2 sequence (whole entry): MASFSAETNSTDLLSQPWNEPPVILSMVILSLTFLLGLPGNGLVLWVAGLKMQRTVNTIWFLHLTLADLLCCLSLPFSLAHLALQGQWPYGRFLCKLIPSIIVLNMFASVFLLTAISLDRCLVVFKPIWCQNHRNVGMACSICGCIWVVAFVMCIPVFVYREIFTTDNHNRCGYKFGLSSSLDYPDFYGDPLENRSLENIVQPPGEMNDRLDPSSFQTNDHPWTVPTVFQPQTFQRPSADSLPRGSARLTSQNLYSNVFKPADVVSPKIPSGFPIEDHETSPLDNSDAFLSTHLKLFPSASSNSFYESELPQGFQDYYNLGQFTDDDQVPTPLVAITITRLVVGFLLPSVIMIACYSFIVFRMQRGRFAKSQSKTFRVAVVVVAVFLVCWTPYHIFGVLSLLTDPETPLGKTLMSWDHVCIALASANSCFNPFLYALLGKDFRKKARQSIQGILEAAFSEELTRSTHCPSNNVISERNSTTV
As to the kind of experiment: Agonist activity at human C3a receptor in human U937 cells assessed as induction of intracellular calcium release at 1 mM. Format: functional, cell-based. The following applies: U-937.

Assay [3] has as its target T2, C3a anaphylatoxin chemotactic receptor (Homo sapiens). As to the kind of experiment: Agonist activity at human C3a receptor in human U937 cells assessed as induction of intracellular calcium release at 10 uM. The format is functional, cell-based. The following applies: U-937.
Assay [4] shares this target. As to the kind of experiment: Displacement of [125I-C3a] from C3a receptor in human PBMC at 1 mM by scintillation counting.
The target of assay [5] is T3, C3a anaphylatoxin chemotactic receptor (Homo sapiens, UniProt Q16581).
T3 sequence (Q16581 whole entry): T2 sequence (whole entry)
As to the kind of experiment: Antagonist activity at human C3a receptor in human U937 cells assessed as inhibition of intracellular calcium mobilization. The format is functional, cell-based, U-937.

Assay [6] concerns the target T3, C3a anaphylatoxin chemotactic receptor. As to the kind of experiment: Displacement of [125I-C3a] from C3a receptor in human PBMC by scintillation counting. The following applies: read-out: IC50.
The species named for assay [7] is Homo sapiens. As to the kind of experiment: Selectivity for human C3a receptor over human C5a receptor.
In assay [8] the target is T2, C3a anaphylatoxin chemotactic receptor (Homo sapiens). As to the kind of experiment: Agonist activity at human C3a receptor in human U937 cells assessed as induction of intracellular calcium release at 100 uM. Format: functional, cell-based. The following applies: U-937.
Assay [9] addresses T4, C5a anaphylatoxin chemotactic receptor 1 (Homo sapiens, UniProt P21730).
T4 sequence (P21730 whole entry): T1 sequence (whole entry)
As to the kind of experiment: Displacement of [125I-C5a] from C5a receptor in human PBMC by scintillation counting.

For assay [10], the target named is T3, C3a anaphylatoxin chemotactic receptor. As to the kind of experiment: Agonist activity at human C3a receptor in human U937 cells assessed as induction of intracellular calcium release. Format: functional, cell-based, U-937.

pEC50, pIC50: −log10 of the molar value. Activity calls are given as the source filed them. The calls are words filed in the database; no cut-off is given here. Peptide text beside a SMILES is read from it.

With `CC(C)C[C@H](NC(=O)[C@@H]1CCCN1C(=O)[C@@H](N)Cc1ccc(O)cc1)C(=O)N1CCC[C@H]1C(=O)N[C@@H](CCCNC(=N)N)C(=O)O` (H-YPLPR-OH), the result in assay [1], in assay [2], in assay [3] and in [4] was inactive.

Take `CC(=O)N[C@@H](Cc1ccccc1)C(=O)N[C@H]1CCCNC(=O)[C@H](CCCN=C(N)N)NC(=O)[C@H](Cc2c[nH]c3ccccc23)NC(=O)[C@@H](CC2CCCCC2)NC(=O)[C@@H]2CCCN2C1=O`: the result in assay [2] and in [4] was inactive.

For the compound `N=C(N)NCCC[C@H](NC(=O)COCC(c1ccccc1)c1ccccc1)C(=O)O`, the result in [1], in assay [2] and in assay [3] was inactive. The pIC50 in [5] was 5.89; in [6] it was 6.85.

Turning to `CSCC[C@H](NC(=O)[C@@H]1CCCN1C(=O)[C@H](CCCCN)NC(=O)[C@H](Cc1cnc[nH]1)NC(=O)[C@H](CO)NC(=O)[C@@H](N)Cc1ccc(O)cc1)C(=O)N1CCC[C@H]1C(=O)N[C@@H](CC(C)C)C(=O)N[C@H](C)C(=O)N[C@@H](CCCNC(=N)N)C(=O)O`, the result in assay [1] and in assay [4] was inactive.

As to `CC(C)C[C@H](NC(=O)[C@@H](N)Cc1ccccc1)C(=O)N[C@H](C(=O)N[C@@H](CC1CCCCC1)C(=O)N[C@@H](C)C(=O)N[C@@H](CCCNC(=N)N)C(=O)O)[C@@H](C)O`, in [7], the Selectivity ratio was more than 100. For the same compound, the result in [1], in [2] and in assay [8] was inactive. Further, the pIC50 in [5] and in [6] was 6.62 each time.

Turning to `CC(C)C[C@H](NC(=O)[C@H](CC(=O)O)NC(=O)[C@H](C)NC(=O)[C@H](CC(C)C)NC(=O)[C@@H](NC(=O)[C@H](CC(C)C)NC(=O)[C@@H](N)Cc1cnc[nH]1)[C@@H](C)O)C(=O)N[C@@H](CC(C)C)C(=O)N[C@@H](CS)C(=O)N[C@@H](CS)C(=O)N[C@@H](CC(C)C)C(=O)N[C@@H](CO)C(=O)N[C@@H](CC(C)C)C(=O)N1CCC[C@H]1C(=O)N[C@@H](Cc1ccccc1)C(=O)O` (H-HLTLADLLCCLSLPF-OH), the results for the pIC50 in [9] and in [6] were 6.25 and 6.60, respectively. Moreover, in assay [10] (read-out: EC50), the pEC50 is 5.74. In [10] (read-out: pEC50 (converted)), the EC50 is 1580 nM.

(Values after ChEMBL document CHEMBL1177720, “Selective hexapeptide agonists and antagonists for human complement C3a receptor” (J Med Chem, 2010).)
